Measurements published in the METLIN SMRT retention time set (Domingo-Almenara et al. 2019).

Assay: gradient 5% acetonitrile 3 min, to 50% in 2 min, to 85% in 15 min, held 3 min, 100 µL/min
Settings: column: Zorbax Extend-C18 2.1 x 50 mm; eluents: water / acetonitrile, 0.1% formic acid
Summary of the method: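 The system's dead and dwell volumes were 40 μL and 900 μL, with a Zorbax Extend-C18 column (2.1 × 50 mm, 1.8 μm) run at 100 μL/min in water and acetonitrile containing 0.1% formic acid each. Pure standards were analyzed in mixtures of ~100 molecules by HPLC–quadrupole time-of-flight mass spectrometry in positive and negative ionization mode. Retention time was assigned from computationally picked, manually inspected adduct peaks.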

Cc1cccc2nnc(N3CCC(C(=O)NCc4ccc(N5CCCCC5)cc4)CC3)n12
RP-LC retention time: 558 s

O=C(c1ccc(F)cc1Cl)N1CCC2(CC1)NC(=O)N(CCOc1ccccc1)C2=O
RP-LC retention time: 764 s

CCCNC(=O)Cn1cc(C(=O)Nc2ccc(C)c(C)c2)c(=O)c2ccc(C)nc21
RP-LC retention time: 966 s

Cn1c(C(=O)NCC2CCCO2)cc2c(=O)oc3ccccc3c21 (centres undefined)
RP-LC retention time: 713 s

Cc1oc(-c2cccc(Cl)c2)nc1Cn1nnc(-c2nc(-c3ccc(F)cc3)no2)c1C
RP-LC retention time: 869 s

Cc1ccc(NC(=O)N2CCc3nc(-c4ccccc4)ncc3C2)c(C)c1
RP-LC retention time: 952 s

CCSc1nnc(-c2nn(C)c3c2CN(S(=O)(=O)c2cccc(Cl)c2C)CC3)n1CC
RP-LC retention time: 1050 s

O=C(CCC1CCCC1)N1CCc2c([nH]c3ccccc23)C1c1ccc(F)cc1 (centres undefined)
RP-LC retention time: 1410 s

COc1ccc(C(C)NC(=O)Cc2cn(C)c3ncccc23)cc1OC (centres undefined)
RP-LC retention time: 640 s

Cc1nc(-c2ccccc2)nn1C1CCN(S(=O)(=O)c2cccs2)C1 (centres undefined)
RP-LC retention time: 816 s

CCc1nnc(-c2ccc3ccn(CC(=O)N4CCN(c5ccccn5)CC4)c3c2)o1
RP-LC retention time: 614 s

CCOC(=O)c1c(S(=O)(=O)N2CCC(C(=O)Nc3ccc(C)c(C)c3)CC2)c(C)n(C)c1C
RP-LC retention time: 841 s

CCCCc1nc(SCC(=O)Nc2nc(-c3ccc(Br)cc3)cs2)n[nH]1
RP-LC retention time: 1050 s

Cc1nn(CC(=O)N2CCN(c3ccc(F)cc3)CC2)c(=O)c2noc(C)c12
RP-LC retention time: 751 s

Cc1ccc2cc(CCC(=O)NCCCN3CCc4ccccc4C3)c(=O)[nH]c2c1
RP-LC retention time: 614 s

Cc1ccc(-c2nc3ncc(C#N)c(N)n3n2)cc1
RP-LC retention time: 707 s

O=C(Nc1ccc2c(c1)OCCO2)N1CCCC(Cn2c(C3CC3)nc3cccnc32)C1 (centres undefined)
RP-LC retention time: 645 s

CCOC(=O)C1CCN(C(=O)c2ccc3c(c2)CCCN3S(=O)(=O)CC)CC1
RP-LC retention time: 798 s

Cc1ccsc1CCNC(=O)C1CCN(C(=O)c2cc(-c3cccnc3)n[nH]2)CC1
RP-LC retention time: 625 s

Cn1c(=O)sc2cc(S(=O)(=O)N3CCC(C(=O)NCc4ccc(F)cc4)CC3)ccc21
RP-LC retention time: 818 s

Cn1cnc(S(=O)(=O)N2CCC(C(=O)N3CCCCCC3)CC2)c1
RP-LC retention time: 638 s

COCc1cc(=O)n(Cc2cc(C)ccc2C)c(N2CCCC2)n1
RP-LC retention time: 912 s

CCNC(=O)Nc1ccc2c(c1)CN(S(=O)(=O)C(C)C)CCO2
RP-LC retention time: 676 s

CNC(=O)c1ccsc1NC(=O)CN1C(=O)c2ccccc2C1=O
RP-LC retention time: 701 s

Cc1ccc(-c2noc(C3CCCN3S(=O)(=O)c3c(C)cc(C)cc3C)n2)cc1 (centres undefined)
RP-LC retention time: 1330 s

Cc1ccc(CN2CCC(CNC(=O)c3sc4ncccc4c3-n3cccc3)C2)cc1 (centres undefined)
RP-LC retention time: 707 s

O=C(c1ccccn1)N1CC(n2cnnc2C2CCCO2)C1 (centres undefined)
RP-LC retention time: 582 s

O=C(c1ccc2[nH]ccc2c1)N1CCN(c2cc(-c3ccc(Cl)cc3)[nH]n2)CC1
RP-LC retention time: 798 s

OCc1cnc(SCc2cccc(C(F)(F)F)c2)n1Cc1ccc2c(c1)OCO2
RP-LC retention time: 649 s

Cc1cc2n(n1)CCCN2C(=O)CCC(=O)N1CCN(c2ccccc2)CC1
RP-LC retention time: 678 s

CCOC(=O)CNC(=O)Nc1ncc(-c2ccccc2)n1C
RP-LC retention time: 613 s

CCCNC(=O)N1CCCN(C2=NS(=O)(=O)C(c3ccc(Cl)cc3)=C2C)CC1
RP-LC retention time: 794 s

O=C(c1ccccc1F)N1CCC(CNS(=O)(=O)c2ccc(C(F)(F)F)cc2)CC1
RP-LC retention time: 847 s

CN(C)c1ccc(N2CCC(C(=O)NCCc3c[nH]c4ccccc34)CC2)nn1
RP-LC retention time: 621 s

Cc1nc2cc3c(cc2n1CC(=O)Nc1ccc2c(c1)OCCCO2)OCCO3
RP-LC retention time: 618 s

COc1ccc(CNC(=O)c2cn3cc(C)ccc3n2)cc1OC
RP-LC retention time: 614 s

CC(C)Cc1nc2cccnc2n1C1CCN(C(=O)Nc2ccccc2)CC1
RP-LC retention time: 677 s

CCC(C)NC(=O)N1CC(n2cc(C(=O)NCC3CC3)nn2)C1 (centres undefined)
RP-LC retention time: 662 s

COc1cccc(-c2noc(C3CCCN3C(=O)Nc3ccc(OC)cc3C)n2)c1 (centres undefined)
RP-LC retention time: 900 s

CCN(CC)C(=O)c1cc2c(s1)CCC(C(=O)Nc1ccc3c(c1)OCO3)C2 (centres undefined)
RP-LC retention time: 860 s

Cc1ccn2c(NC(=O)CCc3ccccc3)c(-c3ccccc3)nc2c1
RP-LC retention time: 642 s

CCN(CC)CCCNC(=O)c1cn(C)nc1S(=O)(=O)N1CCN(c2ccc(Cl)cc2)CC1
RP-LC retention time: 729 s

CSc1ccc(CNC(=O)C2CCN(c3cc(=O)n(C)c(=O)n3C)CC2)cc1
RP-LC retention time: 694 s

CCn1nc(C)c(CCN(C)C(=O)c2cc3c(s2)N(C)CCCC3)c1C
RP-LC retention time: 743 s
